Key:
[1] = test system: HL-7702; test: cells; design: anti-proliferative / cytotoxicity assay on cell lines, IC50; details: Homo sapiens, L02, read-out: IC50 (µM) HL-7702
Text: (§1) As shown in SPR and ITC data, the binding affinity of OC to Cath B was weaker than that of OC to HSPA8, justifying our selection of HSPA8 for further studies. To evaluate whether OC potentially binds to HSPA8 in cell lysates, we synthesized OC_biotin ([Wang et al., 2016]; Supplementary Figure S8) and performed a pulldown assay using avidin beads. We first examined whether OC_biotin has the same binding affinity with that of OC to HSPA8 using SPR and ITC assays. […] We then examined the anticancer activities of OC_biotin and OC in several cancer cell lines. As shown in Supplementary Table S4, OC_biotin exerted similar anti-proliferative activity to that of OC in multiple cancer cell lines, with IC50 ranging from 5 to 20 µM. […] By using HeLa cells that stably expressed GFP-LC3, we measured the GFP-LC3 puncta increment upon OC, OC_biotin and Hydroxychloroquine (HCQ) treatment. […] Avidin beads were used to perform the OC_biotin immunoprecipitation assay with cell lysates. Consistent with the SPR and ITC assays, we pulled down HSPA8 using cell lysates.

[2] = test system: PANC-1; test: cells; design: anti-proliferative / cytotoxicity assay on cell lines, IC50; details: Homo sapiens, PANC-1, read-out: IC50 (µM)
Text: as §1

[3] = test system: PC-3; test: cells; design: anti-proliferative / cytotoxicity assay on cell lines, IC50; details: Homo sapiens, PC-3, read-out: IC50 (µM)
Text: as §1

[4] = test system: A549; test: cells; design: anti-proliferative / cytotoxicity assay on cell lines, IC50; details: Homo sapiens, A549, read-out: IC50 (µM)
Text: as §1

[5] = test system: Hela; test: cells; design: anti-proliferative / cytotoxicity assay on cell lines, IC50; details: Homo sapiens, HeLa, read-out: IC50 (µM)
Text: as §1

[6] = test system: HCT116-DKO; test: cells; design: anti-proliferative / cytotoxicity assay on cell lines, IC50; details: read-out: IC50 (µM)
Text: as §1

[7] = test system: MDA-MB-231; test: cells; design: anti-proliferative / cytotoxicity assay on cell lines, IC50; details: Homo sapiens, MDA-MB-231, read-out: IC50 (µM)
Text: as §1

[8] = target: T1, heat shock 70 kDa protein 8 (HSPA8) (Homo sapiens, UniProt P11142); test: ITC (KD […]); SPR KD […] ([…] also printed); thermal shift lowers Tm by ~[…]°C; type: binding
T1 construct: Full-length HSPA8, his-tagged, expressed in E. coli

[9] = target: T2, cathepsin B (Cath B) (Homo sapiens, UniProt P07858); test: ITC (KD […]); SPR KD […]; protease activity IC50 […]; type: binding
T2 construct: gene CTSB

T1 sequence (P11142 whole entry): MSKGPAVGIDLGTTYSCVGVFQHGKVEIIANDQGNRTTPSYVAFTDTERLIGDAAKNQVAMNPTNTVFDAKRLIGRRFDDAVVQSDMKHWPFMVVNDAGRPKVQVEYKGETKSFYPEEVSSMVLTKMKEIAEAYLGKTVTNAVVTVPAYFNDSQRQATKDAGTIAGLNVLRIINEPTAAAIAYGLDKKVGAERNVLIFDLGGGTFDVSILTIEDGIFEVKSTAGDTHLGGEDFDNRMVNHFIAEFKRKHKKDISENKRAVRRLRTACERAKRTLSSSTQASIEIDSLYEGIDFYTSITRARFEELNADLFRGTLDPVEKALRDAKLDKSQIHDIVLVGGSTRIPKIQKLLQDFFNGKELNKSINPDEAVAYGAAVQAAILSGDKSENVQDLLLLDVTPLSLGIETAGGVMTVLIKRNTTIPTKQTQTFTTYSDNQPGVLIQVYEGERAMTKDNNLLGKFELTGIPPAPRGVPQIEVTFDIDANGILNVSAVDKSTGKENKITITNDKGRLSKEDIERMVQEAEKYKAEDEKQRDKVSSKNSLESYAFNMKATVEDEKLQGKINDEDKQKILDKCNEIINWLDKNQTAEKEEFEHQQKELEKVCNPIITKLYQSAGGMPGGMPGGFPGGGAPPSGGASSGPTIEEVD

| Kd [8] | Kd [9] | Compound | IC50 [1] | IC50 [2] | IC50 [3] | IC50 [4] | IC50 [5] | IC50 [6] | IC50 [7] |
| --- | --- | --- | --- | --- | --- | --- | --- | --- | --- |
|  |  | COc1cc([C@@H]2c3cc4c(cc3[C@@H](O[C@@H]3O[C@@H]5CO[C@@H](C)O[C@H]5[C@H](O)[C@H]3O)[C@H]3COC(=O)[C@H]23)OCO4)cc(OC)c1O [Etoposide] | 1.42 ± 0.2 µM | 22.7 ± 1.7 µM |  |  |  |  |  |
| 6.2 µM | 25.6 µM | CC(C)=CCC/C(C)=C/C[C@@H]1C[C@]2(CC=C(C)C)C(=O)[C@@](CC=C(C)C)(C(=O)C(C(=O)c3ccc(O)c(O)c3)=C2O)[C@@]1(C)CCC=C(C)C [OC, Oblongifolin C] | 5.16 ± 0.4 µM | 17.5 ± 0.9 µM | 10.7 ± 0.6 µM | 7.49 ± 0.9 µM | 11 ± 1.2 µM | 12.2 ± 0.9 µM | 15.9 ± 1.1 µM |
